According to patent US6921835B2, “Cyclic amino acids and derivatives thereof useful as pharmaceutical agents” (Warner Lambert Company, priority 1997, dated 2005):
pIC50: −log10 of the molar value. Where a name gives a salt, the structure may show the parent alone. Read-outs that look alike come from different tables or passages of the source.

Experiments:
α2δ subunit = target: T1, α2δ subunit (Sus scrofa, UniProt A0A287BIN3); test: radioligand binding assay using [3H]gabapentin and the α2δ subunit; set-up: species or system porcine
T1 construct: the α2δ subunit derived from porcine brain tissue was used; from tissue; host or cells: porcine brain tissue
T1 sequence (A0A287BIN3 25-1109): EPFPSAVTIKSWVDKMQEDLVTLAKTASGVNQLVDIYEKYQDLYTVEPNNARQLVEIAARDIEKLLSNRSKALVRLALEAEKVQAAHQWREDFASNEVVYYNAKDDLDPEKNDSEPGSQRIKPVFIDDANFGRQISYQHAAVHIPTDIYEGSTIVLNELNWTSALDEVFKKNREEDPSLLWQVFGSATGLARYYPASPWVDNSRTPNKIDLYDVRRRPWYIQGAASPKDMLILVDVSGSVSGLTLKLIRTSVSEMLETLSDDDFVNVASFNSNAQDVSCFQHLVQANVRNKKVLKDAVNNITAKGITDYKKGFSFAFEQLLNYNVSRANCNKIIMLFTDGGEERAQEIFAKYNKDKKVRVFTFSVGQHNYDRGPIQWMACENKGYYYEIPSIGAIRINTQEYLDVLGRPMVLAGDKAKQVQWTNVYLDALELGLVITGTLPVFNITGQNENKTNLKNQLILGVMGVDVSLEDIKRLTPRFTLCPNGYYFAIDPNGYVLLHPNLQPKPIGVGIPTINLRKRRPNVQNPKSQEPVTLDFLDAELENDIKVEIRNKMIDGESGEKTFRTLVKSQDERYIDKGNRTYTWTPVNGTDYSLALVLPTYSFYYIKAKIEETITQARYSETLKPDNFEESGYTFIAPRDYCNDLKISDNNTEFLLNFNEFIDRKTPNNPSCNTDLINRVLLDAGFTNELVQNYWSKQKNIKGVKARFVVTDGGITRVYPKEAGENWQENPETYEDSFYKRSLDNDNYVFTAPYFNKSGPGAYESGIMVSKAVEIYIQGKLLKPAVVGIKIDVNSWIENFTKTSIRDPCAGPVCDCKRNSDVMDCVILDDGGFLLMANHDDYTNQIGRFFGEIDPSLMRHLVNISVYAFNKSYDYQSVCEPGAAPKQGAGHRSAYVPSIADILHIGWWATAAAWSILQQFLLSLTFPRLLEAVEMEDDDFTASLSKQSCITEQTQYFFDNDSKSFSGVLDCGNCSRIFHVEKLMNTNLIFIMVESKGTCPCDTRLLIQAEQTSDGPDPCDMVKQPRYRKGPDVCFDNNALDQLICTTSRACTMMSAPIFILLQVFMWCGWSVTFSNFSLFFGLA

[1] = system: Carrageenan Induced Thermal Hyperalgesia in the Rat; test: Carrageenan-induced thermal hyperalgesia in the rat (plantar test, paw withdrawal latency); assay type: in vivo; conditions: MPE = maximum possible effect, baseline before carrageenan
Description: Male Sprague-Dawley rats (180-250 g) were obtained from Bantin and Kingman, (Hull, U.K.). Animals were housed in groups of 6 to 10 under a 12 hour light/dark cycle (lights on at 7 hours, 0 minutes) with food and water ad libitum.
Carrageenan-induced Thermal Hyperalgesia in the Rat
Thermal hyperalgesia was assessed using the rat plantar test (Ugo Basile, Italy) following a modified method of Hargreaves, et al., 1988. Rats were habituated to the apparatus which consisted of three individual perspex boxes on an elevated glass table. A mobile radiant heat source located under the table was focused onto the desired paw and paw withdrawal latencies (PWL) recorded. PWL were taken 3 times for both hind paws of each animal, the mean of which represented baselines for right and left hind paws. At least 5 minutes were allowed between each PWL for an animal. The apparatus was calibrated to give a PWL of approximately 10 s. There was an automatic cutoff point of 20 s to prevent tissue damage. After baseline PWLs were determined, animals received an intraplantar injection of carrageenan (100 μL of 20 mg/mL) into the right hind paw. PWLs were reassessed following the same protocol as above 2-hour post-carrageenan (this time point represented the start of peak hyperalgesia) to ascertain that hyperalgesia had developed. Test compounds were administered orally (in a volume of 1 mL/kg) at 2.5 hours after carrageenan. PWLs were reassessed at various times after drug administration.

[2] = system: sound-induced tonic seizures in DBA/2 mice; test: DBA2 test: prevention of audiogenic seizures in DBA/2 mice; assay type: in vivo; conditions: DBA/2 mouse
Description: A Model of Anticonvulsant Efficacy and Protocol for DBA2 Test: Prevention of Audiogenic Seizures in DBA/2 Mice
All procedures were carried out in compliance with the NI/H Guide for the Care and Use of Laboratory Animals under a protocol approved by the Parke-Davis Animal Use Committee. Male DBA/2 mice, 3 to 4 weeks old, were obtained from Jackson Laboratories, Bar Harbour, Me. Immediately before anticonvulsant testing, mice were placed upon a wire mesh, 4 inches square suspended from a steel rod. The square was slowly inverted through 180 degrees and mice observed for 30 seconds. Any mouse falling from the wire mesh was scored as ataxic.
Mice were placed into an enclosed acrylic plastic chamber (21 cm height, approximately 30 cm diameter) with a high-frequency speaker (4 cm diameter) in the center of the top lid. An audio signal generator (Protek model B-810) was used to produce a continuous sinusoidal tone that was swept linearly in frequency between 8 kHz and 16 kHz once each 10 msec. The average sound pressure level (SPL) during stimulation was approximately 100 dB at the floor of the chamber. Mice were placed within the chamber and allowed to acclimatize for 1 minute. DBA/2 mice in the vehicle-treated group responded to the sound stimulus (applied until tonic extension occurred, or for a maximum of 60 seconds) with a characteristic seizure sequence consisting of wild running followed by clonic seizures, and later by tonic extension, and finally by respiratory arrest and death in 80% or more of the mice. In vehicle-treated mice, the entire sequence of seizures to respiratory arrest lasts approximately 15 to 20 seconds.
The incidence of all the seizure phases in the drug-treated and vehicle-treated mice was recorded, and the occurrence of tonic seizures were used for calculating anticonvulsant ED50 values by probit analysis. Mice were used only once for testing at each dose point. […] All drugs in the present study were dissolved in distilled water and given by oral gavage in a volume of 10 mL/kg of body weight. compounds that are insoluble will be suspended in 1% carboxymethocellulose. Doses are expressed as weight of the active drug moiety.

For `NCC1(CC(=O)O)CC(Cc2ccccc2)C1` (mixture of isomers) [(cis/trans)-(1-Aminomethyl-3-benzyl-cyclobutyl)-acetic acid hydrochloride], the pIC50 (α2δ subunit) was less than 5.00, the “% MPE 1 hr postdose @ 30 mg/kg PO” value [1] was 0 % MPE and the “% MPE 2 hr postdose @ 30 mg/kg PO” value [1] was 0 % MPE.

For `C[C@@H]1CCC(CN)(CC(=O)O)C1` (mixture of isomers) [(cis/trans)-(3R)-(1-Aminomethyl-3-methyl-cyclopentyl)-acetic acid hydrochloride], the pIC50 (α2δ subunit) was 7.06, the “% Protected 1 hr postdose 30 mg/kg PO” value [2] was 100% and the “% MPE 1 hr postdose @ 30 mg/kg PO” value [1] was 67 % MPE. The “% MPE 2 hr postdose @ 30 mg/kg PO” value [1] was 53 % MPE.

With `C[C@@H]1CC(CN)(CC(=O)O)C[C@H]1C.Cl` (racemic) [(±)-(trans)-(1-Aminomethyl-3,4-dimethyl-cyclopentyl)-acetic acid hydrochloride] the pIC50 (α2δ subunit) was 7.47, the “% Protected 1 hr postdose 30 mg/kg PO” value [2] was 100% and the “% MPE 1 hr postdose @ 30 mg/kg PO” value [1] was 23 % MPE. For the same compound, the “% MPE 2 hr postdose @ 30 mg/kg PO” value [1] was 72 % MPE.

`Cl.NCC1(CC(=O)O)CCC1` [(1-Aminomethyl-cyclobutyl)-acetic acid hydrochloride] was tested, and the pIC50 (α2δ subunit) was 6.22, the “% Protected (2 hour postdose) 30 mg/kg PO” value ([2]; 2 hour postdose) was 20 (2 hour postdose) % and the “% MPE 1 hr postdose @ 30 mg/kg PO” value [1] was 4 % MPE. For the same compound, the “% MPE 2 hr postdose @ 30 mg/kg PO” value [1] was 4 % MPE.

In the case of `C[C@@H]1C[C@](CN)(CC(=O)O)C[C@@H]1C` [(1α,3β,4β)-(1-Aminomethyl-3,4-dimethyl-cyclopentyl)-acetic acid hydrochloride], the IC50 (α2δ subunit; read-out: IC50 (μM) at α2δ binding site) was 0.154 µM, the “% Protected 1 hr postdose 30 mg/kg PO” value [2] was 100% and the “% MPE 1 hr postdose @ 30 mg/kg PO” value [1] was −7 % MPE. The “% MPE 2 hr postdose @ 30 mg/kg PO” value [1] was −2 % MPE.

Compound `C[C@@H]1CC(CN)(CC(=O)O)C[C@H]1C` [(3R,4R)-(1-Aminomethyl-3,4-dimethyl-cyclopentyl)-acetic acid hydrochloride] has a pIC50 (α2δ subunit) of 6.00.

In the case of `C[C@H]1CC(CN)(CC(=O)O)C[C@@H]1C.Cl` [(3S,4S)-(1-Aminomethyl-3,4-dimethyl-cyclopentyl)-acetic acid hydrochloride], the pIC50 (α2δ subunit) was 7.66, the “% Protected 1 hr postdose 30 mg/kg PO” value [2] was 100% and the “% MPE 1 hr postdose @ 30 mg/kg PO” value [1] was 109 % MPE. The “% MPE 2 hr postdose @ 30 mg/kg PO” value [1] was 118 % MPE.
